{"source": "patent US20060013794A1", "about": "“Cosmetic or pharmaceutical composition comprising peptides with the sequences arggly-ser” (priority 2002, published 2006)", "system": "HaCat human keratinocytes", "assay": "Cell differentiation, immunofluorescence with anti-ERG 1-2 antibodies", "type": "cell-based", "conditions": "at 24 hours", "note": "Where a SMILES comes first, the peptide text is derived from it.", "data": [{"smiles": "N=C(N)NCCC[C@H](N)C(=O)NCC(=O)N[C@@H](CO)C(=O)O", "note": "[Arg-Gly-Ser] (H-Arg-Gly-Ser-OH)", "values": [{"measurement": "quantity of ERG molecules present in the cells (fluorescence intensity, cell differentiation marker)", "result": "increases"}]}]}
